The text below walks through data of US20250368649A1, “TETRAHYDROPYRIDOPYRIMIDINE PAN-KRAS INHIBITORS” (Mirati Therapeutics, Inc., priority 2022, published 2025).

Assay [1] concerns the target KRas WT (Homo sapiens, UniProt P01116). Description: KRas binding assay (TR-FRET displacement), KRas WT. The settings on record: single point, 10 nM compound. A general note: In TR-FRET formats the signal depends on donor and acceptor labels being close together.
The target in assay [2] is KRas G12A (Homo sapiens, UniProt P01116, G12A). Format: binding. The following applies: single point, 10 nM compound, read-out: Binding to KRas (% inhibition at 10 nM) G12A.
Sequence of KRas G12A (P01116 1-169 isoform P01116-2 G12A): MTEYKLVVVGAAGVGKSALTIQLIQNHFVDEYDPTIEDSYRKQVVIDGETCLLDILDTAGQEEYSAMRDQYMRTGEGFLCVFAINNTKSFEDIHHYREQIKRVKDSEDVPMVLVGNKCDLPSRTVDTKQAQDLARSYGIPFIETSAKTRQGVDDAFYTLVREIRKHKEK
Assay [3] concerns the target KRas G12C (Homo sapiens, UniProt P01116, G12C). Format: binding. The following applies: single point, 10 nM compound, read-out: Binding to KRas (% inhibition at 10 nM) G12C.
Assay [4] has as its target KRas G12S (Homo sapiens, UniProt P01116, G12S). Format: binding. The settings on record: single point, 10 nM compound, read-out: Binding to KRas (% inhibition at 10 nM) G12S.
Assay [5] addresses KRas G13D (Homo sapiens, UniProt P01116, G13D). Type of assay: binding. The following applies: single point, 10 nM compound, read-out: Binding to KRas (% inhibition at 10 nM) G13D.
The target of assay [6] is KRas Q61H (Homo sapiens, UniProt P01116, Q61H). Nature of the assay: KRas binding assay (TR-FRET displacement), KRas Q61H. The following applies: single point, 10 nM compound.
Sequence of KRas Q61H (P01116 1-169 isoform P01116-2 Q61H): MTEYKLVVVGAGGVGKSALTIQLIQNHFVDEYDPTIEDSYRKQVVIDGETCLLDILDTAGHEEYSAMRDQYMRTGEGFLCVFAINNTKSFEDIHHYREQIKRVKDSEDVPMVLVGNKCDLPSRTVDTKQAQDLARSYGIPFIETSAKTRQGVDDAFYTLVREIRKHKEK
Assay [7] has as its system MKN1 cells. Nature of the assay: Inhibition of KRas-mediated phosphorylation of ERK (Cisbio HTRF pERK), MKN1 cells. Type of assay: cell-based. The settings on record: Homo sapiens, MKN-1, 3 hour compound incubation, Cisbio pERK HTRF. The procedure, abridged:
(§1)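 Cells were seeded on day 1 at 6,000 per well in RPMI containing 10% FBS before compound treatment and phospho-ERK detection.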

Assay [8] relates to PSN1 cells. Nature of the assay: Inhibition of KRas-mediated phosphorylation of ERK (Cisbio HTRF pERK), PSN1 cells. Format: cell-based. The settings on record: Homo sapiens, PSN1, 3 h, 3 hour compound incubation, Cisbio pERK HTRF. The procedure, abridged:
as §1

In assay [9] the test system is ASPC1 cells. Description: Inhibition of KRas-mediated phosphorylation of ERK (Cisbio HTRF pERK), ASPC1 cells. Type of assay: cell-based. The following applies: Homo sapiens, AsPC-1 cells; for IC50: ASPC1, 3 h, 3 hr compound incubation, Cisbio pERK HTRF; for inhibition at 0.1 µM: ASPC1, single point at 100 nM, 3 hrs compound incubation.
For assay [10], the system named is H727 cells. Description: Inhibition of KRas-mediated phosphorylation of ERK (Cisbio HTRF pERK), H727 cells. The following applies: Homo sapiens; for IC50: NCI-H727, 3 h, 3 hr compound incubation, Cisbio pERK HTRF; for inhibition at 0.1 µM: NCI-H727, single point at 100 nM, 3 hrs compound incubation. Type of assay: cell-based.
Assay [11] deals with A549 cells. Nature of the assay: Inhibition of KRas-mediated phosphorylation of ERK (Cisbio HTRF pERK), A549 cells. Type of assay: cell-based. The settings on record: Homo sapiens, single point at 100 nM, 3 hrs compound incubation.
Assay [12] relates to H460 cells. Description: Inhibition of KRas-mediated phosphorylation of ERK (Cisbio HTRF pERK), H460 cells. Type of assay: cell-based. The settings on record: Homo sapiens; for inhibition at 0.1 µM: NCI-H460, single point at 100 nM, 3 hrs compound incubation.
Assay [13] relates to HCT116 cells. Nature of the assay: Inhibition of KRas-mediated phosphorylation of ERK (Cisbio HTRF pERK), HCT116 cells. Format: cell-based. The following applies: Homo sapiens, HCT-116, single point at 100 nM, 3 hrs compound incubation.
The subject of assay [14] is H358 cells. Description: Inhibition of KRas-mediated phosphorylation of ERK (Cisbio HTRF pERK), H358 cells. Type of assay: cell-based. The following applies: Homo sapiens, NCI-H358, single point at 100 nM, 3 hrs compound incubation.
In assay [15] the target is KRas G12D (Homo sapiens, UniProt P01116, G12D). Description: biochemical. The following applies: Binding to KRas (IC50 nM) G12D, TR-FRET displacement, KRas G12D.
Sequence of KRas G12D (P01116 1-169 isoform P01116-2 G12D): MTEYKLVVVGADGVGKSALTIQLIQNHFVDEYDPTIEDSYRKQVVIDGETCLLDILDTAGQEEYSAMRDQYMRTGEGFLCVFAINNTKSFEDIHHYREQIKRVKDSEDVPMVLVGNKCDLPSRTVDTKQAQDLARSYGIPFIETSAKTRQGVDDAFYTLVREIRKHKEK
Assay [16] deals with KRas G12R (Homo sapiens, UniProt P01116, G12R). Nature of the assay: biochemical. The settings on record: Binding to KRas (IC50 nM) G12R, TR-FRET displacement, KRas G12R.
Sequence of KRas G12R (P01116 1-169 isoform P01116-2 G12R): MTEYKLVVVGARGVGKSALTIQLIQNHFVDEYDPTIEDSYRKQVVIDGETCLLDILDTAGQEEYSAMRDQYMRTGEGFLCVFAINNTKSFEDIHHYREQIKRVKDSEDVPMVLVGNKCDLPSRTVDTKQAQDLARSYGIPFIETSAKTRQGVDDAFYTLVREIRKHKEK
Assay [17] deals with KRas G12V (Homo sapiens, UniProt P01116, G12V). Description: biochemical. The following applies: Binding to KRas (IC50 nM) G12V, TR-FRET displacement, KRas G12V.
Sequence of KRas G12V (P01116 1-169 isoform P01116-2 G12V): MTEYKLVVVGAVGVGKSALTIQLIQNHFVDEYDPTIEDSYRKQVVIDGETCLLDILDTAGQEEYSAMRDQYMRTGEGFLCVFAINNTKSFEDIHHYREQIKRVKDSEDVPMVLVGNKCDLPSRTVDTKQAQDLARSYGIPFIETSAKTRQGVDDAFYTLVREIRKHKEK

Sequence of KRas WT (P01116 1-169 isoform P01116-2): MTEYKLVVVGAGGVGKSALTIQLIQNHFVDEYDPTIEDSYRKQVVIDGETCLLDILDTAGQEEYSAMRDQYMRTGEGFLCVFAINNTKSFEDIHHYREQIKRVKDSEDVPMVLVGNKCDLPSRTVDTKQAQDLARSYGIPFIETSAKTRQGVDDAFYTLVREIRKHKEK
Sequence of KRas G12S (P01116 1-169 isoform P01116-2 G12S): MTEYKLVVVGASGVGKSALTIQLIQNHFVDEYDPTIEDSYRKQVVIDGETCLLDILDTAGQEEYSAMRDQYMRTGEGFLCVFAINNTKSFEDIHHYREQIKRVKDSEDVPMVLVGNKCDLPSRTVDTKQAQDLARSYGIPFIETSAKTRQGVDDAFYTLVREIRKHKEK
Sequence of KRas G13D (P01116 1-169 isoform P01116-2 G13D): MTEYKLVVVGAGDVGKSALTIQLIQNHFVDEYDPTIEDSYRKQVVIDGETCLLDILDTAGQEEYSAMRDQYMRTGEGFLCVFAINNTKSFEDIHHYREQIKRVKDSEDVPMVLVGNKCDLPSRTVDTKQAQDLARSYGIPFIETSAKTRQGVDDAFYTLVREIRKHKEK
Sequence of KRas G12C (P01116 1-169 isoform P01116-2 G12C): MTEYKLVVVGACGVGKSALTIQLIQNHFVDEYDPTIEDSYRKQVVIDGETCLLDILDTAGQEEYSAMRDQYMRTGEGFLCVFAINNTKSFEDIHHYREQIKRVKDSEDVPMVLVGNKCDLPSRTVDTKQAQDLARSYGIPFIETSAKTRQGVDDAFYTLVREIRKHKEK

By inhibition is commonly meant the percentage by which the read-out fell short of the control. What is called IC50 is the midpoint of a concentration-inhibition curve. A low value points to inhibition by little substance. With `CCc1c(F)ccc2cc(O)cc(N3CCc4c(nc(OC[C@@]56CCCN5C[C@H](F)C6)nc4N4CCCn5nc(C(=O)N6CCN7CC(O)CC7C6)cc5C4)C3)c12` (stereo partly drawn) [Example 257, (5-(7-(8-ethyl-7-fluoro-3-hydroxynaphthalen-1-yl)-2-(((2R,7aS)-2-fluorotetrahydro-1H-pyrrolizin-7a(5H)-yl)methoxy)-5,6,7,8-tetrahydropyrido[3,4-d]pyrimidin-4-yl)-5,6,7,8-tetrahydro-4H-pyrazolo[1,5-a][1,4]diazepin-2-yl)(7-hydroxyhexahydropyrrolo[1,2-a]pyrazin-2(1H)-yl)methanone], the inhibition at 0.01 µM in assay [1] amounted to 98%; in assay [2], 97%; in assay [3], 99%; in assay [4] it was 99%; in assay [5] it was 98%; in [6], 100%. Also, the half-inhibitory concentration (IC50) was 1.2 nM in assay [7]; over 10000 nM in assay [8]; 31 nM in assay [9]; 55 nM in assay [10]; under 2 nM in [15]; under 2 nM in assay [16]. In assay [17], this compound registered an IC50 of under 2 nM. Moreover, the inhibition at 0.1 µM was 77% in assay [9]; 36% in [10]; 35% in assay [11]; 21% in assay [12]; 8% in assay [13]; 95% in assay [14].

In the case of `CCc1c(F)ccc2cc(O)cc(N3CCc4c(nc(OC[C@@]56CCCN5C[C@H](F)C6)nc4N4CCCn5nc(C(=O)N6C7CCC6CNC7)cc5C4)C3)c12` [Example 258, 3,8-diazabicyclo[3.2.1]octan-8-yl(5-(7-(8-ethyl-7-fluoro-3-hydroxynaphthalen-1-yl)-2-(((2R,7aS)-2-fluorohexahydro-1H-pyrrolizin-7a-yl)methoxy)-5,6,7,8-tetrahydropyrido[3,4-d]pyrimidin-4-yl)-5,6,7,8-tetrahydro-4H-pyrazolo[1,5-a][1,4]diazepin-2-yl)methanone], the inhibition at 0.01 µM was 97% in [1]; 98% in assay [2]; 100% in assay [3]; 99% in assay [4]; 98% in assay [5]; 97% in [6]. Further, the IC50 in assay [7] is 5.4 nM; in [8], 8640 nM; in [9] it was 29 nM; in [10] it was 24 nM; in [15], under 2 nM; in [16], under 2 nM. The same compound registered an IC50 in [17] of under 2 nM. Besides, the inhibition at 0.1 µM in [9] came to 79%; in [10], 55%; in assay [11], 42%; in assay [12], 24%; in assay [13] it was 3%; in assay [14], 95%.

As for `CCc1c(F)ccc2cc(O)cc(N3CCc4c(nc(OC[C@@]56CCCN5C[C@H](F)C6)nc4N4CCCn5nc(NC)c(C)c5C4)C3)c12` [Example 376, 5-ethyl-6-fluoro-4-(2-(((2R,7aS)-2-fluorohexahydro-1H-pyrrolizin-7a-yl)methoxy)-4-(3-methyl-2-(methylamino)-7,8-dihydro-4H-pyrazolo[1,5-a][1,4]diazepin-5(6H)-yl)-5,6-dihydropyrido[3,4-d]pyrimidin-7(8H)-yl)naphthalen-2-ol], the inhibition at 0.01 µM in [1] worked out at 53%; in [2] it was 54%; in assay [3] it was 78%; in assay [4] it was 70%; in [5] it was 61%; in assay [6], 51%. The IC50 was 76.1 nM in assay [7]; over 10000 nM in assay [8]; 55 nM in assay [9]; 124 nM in assay [10]; 112 nM in [12] (NCI-H460, 3 h, 3 hr compound incubation, Cisbio pERK HTRF); 4 nM in [15]. The results for the IC50 in assay [16] and in assay [17] were 3 nM and 4 nM, respectively. Besides, the figures for the inhibition at 0.1 µM in [11] and in assay [14] were 34% and 70%, respectively.
